Tested on: mouse T lymphocytes
Experiment: T-cell proliferation assay (ionomycin plus PMA induced T-cell stimulation, tritiated thymidine uptake)
Format: cell-based
Conditions: T-lymphocyte, standard at 10 ng/ml
Method: The principle of this assay is to measure the proliferation of mouse T lymphocytes stimulated with the combination of ionomycin plus PMA. A positive sample in this assay will inhibit T-cell proliferation, as indicated by reduced tritiated thymidine uptake.
Purified L-683,756, as prepared by HPLC above, was dissolved in absolute ethanol at 1 mg/ml.
Spleens from C57B1/6 mice were taken under sterile conditions and gently dissociated in ice-cold RPMI 1640 culture medium (GIBCO, Grand Island, N.Y.) supplemented with 10% heat-inactivated fetal calf serum (GIBCO). Cells were pelleted by centrifugation at 1500 rpm for 8 minutes. […]
Purified T lymphocytes were resuspended at 2.5 x 10⁵ cells/ml in complete culture medium composed of RPMI 1640 medium with 10% heat-inactivated fetal calf serum, […] glutamine, 1 mM sodium pyruvate, 2 x 10⁻⁵ M 2-mercaptoethanol and 50 µg/ml gentamycin. […] The proliferation of T lymphocytes was assessed by measurement of tritiated thymidine incorporation. […] Radioactivity of filter discs corresponding to individual wells was measured by standard liquid scintillation counting methods (Betacounter). Mean counts per minute of replicate wells were calculated and the results expressed as percent inhibition of tritiated thymidine uptake (proliferation) as follows: [formula]

## CC[C@@H]1/C=C(\C)C[C@H](C)C[C@H](OC)[C@H]2O[C@@](O)(C(=O)C(=O)N3CCCC[C@H]3C(=O)O[C@H](/C(C)=C/[C@@H]3CC[C@@H](O)[C@H](OC)C3)[C@H](C)[C@@H](O)CC1=O)[C@H](C)C[C@@H]2OC [L-683,590]
  inhibition at 0.01 µg/mL: 99%
